We go through four compounds from US8895561B2, “Compounds and methods for treating candidiasis and aspergillus infections” (Cellceutix Corporation, priority 2012, dated 2014).

Values after ≈ are worked out from the molar mass of the structure shown. Read-outs that look alike come from different tables or passages of the source.

What all share (type): cell-based
Test [1] relates to C. albicans GDH2346. Kind of test: Candida IC50, vegetative cells, by OD600 and fluorescence. As to conditions: Candida albicans, GDH2346. The gist of the method: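 Vegetative C. albicans GDH2346 in RPMI/MOPS pH 6.3 with FDGlu, an exoglucanase substrate giving fluorescent growth signal. OD600 and fluorescence read at 24 and 48 h; IC50 from the average of all four reads.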
The subject of test [2] is C. albicans GDH2346 hyphal biofilm. Kind of test: Candida IC50 in the hyphal state / hyphal biofilm, MTS viability assay. As to conditions: Candida albicans. As to the method: Candida IC50s were determined by OD600 and fluorescence from vegetative cells and by MTS viability assay in the hyphal state. MICs were determined using a broth microdilution assay under standard CLSI conditions Bacteria strains: E. coli 25922 (EC), S. aureus 27660 (SA), E. faecalis 29212 (EF), P. aeruginosa 10145 (PA), and K. pneumoniae 13883 (KP). Cytotoxicity (EC50) was determined against mouse 3T3 fibroblasts, human transformed liver HepG2 cells, and human oral keratinocyte cell line, OKF6/TERT using an MTS viability assay. Candida IC50s<10 μg/mL, MICs<5 μg/mL and cytotoxicity EC50s>100 μM are indicated in green. MICs>5 μg/mL and cytotoxicity EC50s<100 μM are indicated in red. To form the biofilm, yeast were grown in RPMI/MOPS, 0.4% sucrose pH7.4 media supplemented with 10% FBS in tissue culture-treated flat bottom 96 well plates for 48 hours. The filamentous yeast cultures were then vigorously washed to remove any non-filamentous, non-attached yeast. The remaining attached filamentous biofilm yeast were incubated in saline containing serially diluted compounds for 24 hours. The cultures were aspirated to remove compound, rinsed and overlayed with RPMI/MOPS, 0.4% sucrose pH7.4 media. Biofilm viability was measured using a cell proliferation assay (CellTiter96 Aqueous Kit from Promega) and IC50s were determined using Prism GraphPad software (nonlinear fit, Table 3).

Test [3] relates to C. albicans GDH2346. In words: Candida MIC, CLSI M27-A3. As to conditions: Candida albicans, GDH2346. As to the method:
(§1) Candida MIC assays were determined in accordance with CLSI guidelines M27-A3 using a clinically isolated C. albicans strain, GDH2346.50% human serum was added to determine activity in the presence of serum.

Test [4] deals with human oral keratinocyte cell line, OKF6/TERT. Kind of test: Cytotoxicity, MTS viability assay. As to the method: Candida IC50s were determined by OD600 and fluorescence from vegetative cells and by MTS viability assay in the hyphal state. MICs were determined using a broth microdilution assay under standard CLSI conditions Bacteria strains: E. coli 25922 (EC), S. aureus 27660 (SA), E. faecalis 29212 (EF), P. aeruginosa 10145 (PA), and K. pneumoniae 13883 (KP). Cytotoxicity (EC50) was determined against mouse 3T3 fibroblasts, human transformed liver HepG2 cells, and human oral keratinocyte cell line, OKF6/TERT using an MTS viability assay. Candida IC50s<10 μg/mL, MICs<5 μg/mL and cytotoxicity EC50s>100 μM are indicated in green. MICs>5 μg/mL and cytotoxicity EC50s<100 μM are indicated in red.
(§2) CLSI conditions Bacteria strains: clinical isolates; yeast strains: C. dubliniensis (NCPF3949), C. glabrata (ATCC 90030), C. krusei (ATCC 6258), C. parapsilosis (ATCC 22019), and C. tropicalis (ATCC 750). Cytotoxicity (EC50) was determined against mouse 3T3 fibroblasts, human transformed liver HepG2 cells, and human oral keratinocyte cell line, OKF6/TERT using an MTS viability assay.
For orientation: Tetrazolium assays rely on reduction of a dye to a coloured formazan, in cell work by metabolically active cells.

The test system of test [5] is C. dubliniensis (NCPF3949). In words: Yeast MIC. The note with it: for MIC: Candida dubliniensis, NCPF3949. As to the method: as §1, §2
The next test relates to C. krusei (ATCC 6258). In words: Yeast MIC. As to conditions: Pichia kudriavzevii, ATCC6258. As to the method: as §1, §2
A further test relates to C. glabrata (ATCC 90030). In words: Yeast MIC. The note with it: for MIC: Nakaseomyces glabratus, ATCC90030. As to the method: as §1, §2
The subject of test [6] is C. parapsilosis (ATCC 22019). Kind of test: Yeast MIC. The note with it: Lodderomyces parapsilosis, ATCC22019. As to the method: as §1, §2
The test system of a further test is C. tropicalis (ATCC 750). Kind of test: Yeast MIC. As to conditions: Candida tropicalis, ATCC750. As to the method:
as §1, §2

Where [7] appears, read: vegetative cells, read-out: IC50 Candida, Vegetative.
The mark [8] stands for this setting: vegetative cultures, read-out: Anti-C. albicans GDH2346 Vegetative (IC50).
Setting [9] is: 48 h, 2-day hyphal biofilm cultures, read-out: Anti-C. albicans GDH2346 Hyphal (IC50).
[10] abbreviates: hyphal state, read-out: IC50 Candida, Hyphal.
Setting [11] is: Table 5, read-out: MIC C. albicans.
The mark [12] stands for this setting: Table 5, read-out: MIC C. dubliniensis.
Where [13] appears, read: Table 5, read-out: MIC C. glabrata.
The mark [14] stands for this setting: 50% human serum, read-out: MIC C. albicans GDH2346 + 50% HS.
Setting [15] is: without serum, read-out: MIC C. albicans GDH2346.
The mark [16] stands for this setting: 50% human serum, read-out: MIC C. dubliniensis + 50% HS.
[17] abbreviates: without serum, read-out: MIC C. dubliniensis.
The mark [18] stands for this setting: 50% human serum, read-out: MIC C. glabrata + 50% HS.
Setting [19] is: without serum, read-out: MIC C. glabrata.

As a reminder, the IC50 is the point on the concentration scale where inhibition reaches its midpoint. For orientation: MIC means the lowest concentration found to suppress growth. `NCCSc1cc(SCCN)c(C(F)(F)F)cc1NC(=O)c1cc(C(=O)Nc2cc(C(F)(F)F)c(SCCN)cc2SCCN)ncn1` [Compound 100]: the IC50 was 4.93 µg/mL (≈ 6.53 µM) with C. albicans GDH2346 [1] (setting [7]); 4.93 µg/mL (≈ 6.53 µM) in the test on C. albicans GDH2346 [1] (setting [8]); 4.9 µg/mL (≈ 6.49 µM) in test [2] (setting [9]); 4.9 µg/mL (≈ 6.49 µM) in test [2] (setting [10]); above 1000 µM in [4]. Further, the MIC was 4 to 8 µg/mL (≈ 5.3 to 10.6 µM) in the test on C. albicans GDH2346 [3] (setting [11]); 8 µg/mL (≈ 10.6 µM) in test [5] (setting [12]); 8 µg/mL (≈ 10.6 µM) in the test with C. krusei (ATCC 6258); 16 µg/mL (≈ 21.2 µM) in the test with C. glabrata (ATCC 90030) (setting [13]); 8 µg/mL (≈ 10.6 µM) in [6]; 4 µg/mL (≈ 5.3 µM) against C. tropicalis (ATCC 750).

With `N=C(N)N1CCN(c2ccc(-c3cc(-c4ccc(N5CCN(C(=N)N)CC5)cc4)ncn3)cc2)CC1` [Compound 136], the IC50 in the test with C. albicans GDH2346 [1] (Table 6, read-out: IC50 C. albicans) turned out to be 1.4 µg/mL (≈ 2.89 µM); with C. albicans GDH2346 [1] (setting [7]) it was 4.24 µg/mL (≈ 8.75 µM); in the test on C. albicans GDH2346 [1] (setting [8]) it was 4.24 µg/mL (≈ 8.75 µM); in test [2] (setting [9]) it was 0.71 µg/mL (≈ 1.47 µM); in test [2] (setting [10]), 0.71 µg/mL (≈ 1.47 µM); in test [4], 466 µM. The minimal inhibitory concentration (MIC) in the test on C. albicans GDH2346 [3] (setting [14]) worked out at 2 µg/mL; in the test on C. albicans GDH2346 [3] (setting [11]) it was 4 µg/mL (≈ 8.25 µM); in the test on C. albicans GDH2346 [3] (setting [15]), 4 µg/mL (≈ 8.25 µM); in [5] (setting [16]), 2 µg/mL; in test [5] (setting [17]) it was 8 µg/mL (≈ 16.5 µM); with C. krusei (ATCC 6258) it was 32 µg/mL (≈ 66 µM). Moreover, the MIC in the test on C. glabrata (ATCC 90030) (setting [18]) was 1 µg/mL; with C. glabrata (ATCC 90030) (setting [19]) it was 4 µg/mL (≈ 8.25 µM); in test [6] it was 4 to 8 µg/mL (≈ 8.25 to 16.5 µM); with C. tropicalis (ATCC 750), 4 to 8 µg/mL (≈ 8.25 to 16.5 µM). In addition, in [5] (Table 5), the “MIC C. dubliniensis” value stood at 8 µg/mL (≈ 16.5 µM). For the same compound, the “MIC C. glabrata” value in the test on C. glabrata (ATCC 90030) (Table 5) came out at 4 µg/mL (≈ 8.25 µM).

For `NCCCOc1cc(-c2cn(-c3cc(OCCCN)cc(OCCCN)c3)nn2)cc(-c2cn(-c3cc(OCCCN)cc(OCCCN)c3)nn2)c1` [Compound 137], the values for the IC50 (in the test with C. albicans GDH2346 [1] (setting [7]); in [2] (setting [10]); in test [4]) were 1.89 µg/mL (≈ 2.59 µM), 2.29 µg/mL (≈ 3.14 µM) and 42 µM, respectively. The MIC in the test with C. albicans GDH2346 [3] (setting [11]) was 8 µg/mL (≈ 11 µM); in test [5] (setting [12]), 8 to 16 µg/mL (≈ 11 to 21.9 µM); in the test with C. krusei (ATCC 6258) it was 8 µg/mL (≈ 11 µM); with C. glabrata (ATCC 90030) (setting [13]), 8 µg/mL (≈ 11 µM); in [6], 4 to 8 µg/mL (≈ 5.48 to 11 µM); against C. tropicalis (ATCC 750) it was 4 µg/mL (≈ 5.48 µM).

With `NCCCOc1cc(OCCCN)cc(-c2ccc3c(c2)c2cc(-c4cc(OCCCN)cc(OCCCN)c4)ccc2n3CCCN)c1` [Compound 135], the concentration for half-maximal inhibition (IC50) was 1.44 µg/mL (≈ 2.15 µM) in the test on C. albicans GDH2346 [1] (setting [7]); 1.44 µg/mL (≈ 2.15 µM) in the test on C. albicans GDH2346 [1] (setting [8]); 2.68 µg/mL (≈ 4.01 µM) in test [2] (setting [9]); 2.68 µg/mL (≈ 4.01 µM) in test [2] (setting [10]); 766 µM in test [4]. The MIC in the test on C. albicans GDH2346 [3] (setting [14]) stood at 2 µg/mL; with C. albicans GDH2346 [3] (setting [11]), 4 µg/mL (≈ 5.98 µM); in the test on C. albicans GDH2346 [3] (setting [15]), 4 µg/mL (≈ 5.98 µM); in test [5] (setting [16]) it was 1 µg/mL; in test [5] (setting [17]), 4 µg/mL (≈ 5.98 µM); in the test with C. krusei (ATCC 6258), 16 µg/mL (≈ 23.9 µM). The MIC in the test on C. glabrata (ATCC 90030) (setting [18]) was 2 µg/mL; in the test with C. glabrata (ATCC 90030) (setting [19]), 2 µg/mL (≈ 2.99 µM); in test [6], 2 µg/mL (≈ 2.99 µM); in the test with C. tropicalis (ATCC 750) it was 2 to 4 µg/mL (≈ 2.99 to 5.98 µM). For the same compound, the “MIC C. dubliniensis” value in test [5] (Table 5) was found to be 4 µg/mL (≈ 5.98 µM). For the same compound, the “MIC C. glabrata” value with C. glabrata (ATCC 90030) (Table 5) was determined as 2 µg/mL (≈ 2.99 µM).
